Results from patent publication US20230165766A1, “DISPERSANT OR DISPERSION MEDIA COMPOSITION COMPRISING 2,3-BUTANEDIOL, AND COSMETIC COMPOSITION COMPRISING SAME” (GS CALTEX CORPORATION, priority 2020, published 2023).

How the values were obtained:
[1] = Allantoin dispersion force evaluation (precipitation amount in water); type: physicochemical
From the text: Precipitation of allantoin occurs well when the temperature is low. When allantoin is precipitated during cosmetic production, it is problematic. In accordance with the present disclosure, using the property of allantoin whose precipitation occurs well, the dispersion force was identified in a short time by measuring an amount of precipitation of allantoin based on each of the polyols under a severe refrigeration condition when the temperature is low, and then the dispersion forces of the various polyols were compared with each other. The stability was evaluated at each of a room temperature, a refrigeration temperature, and thermostat (45° C.). […] In this experiment, the dispersion force of allantoin, that is, the precipitation amount, and a precipitation rate thereof, based on each of the polyols was evaluated. […] The amount of precipitation of allantoin was measured as follows. […] After the 24 hours or 7 days, a supernatant was removed therefrom, and the resulting mixture was dried in a thermostat to entirely remove any remaining supernatant, leaving only the precipitated portion. Then, the precipitated portion was dried for 12 hours, and then a weight thereof was measured. Thus, the amount of precipitation was derived as a difference value between the measured weight and the previously measured weight of the empty container.

[2] = Dispersion force of allantoin in solubilized formulation; type: physicochemical
Protocol: 0.02 parts by weight of EDTA-2Na, 2 parts by weight of 1,2-hexanediol, and 0.5 parts by weight of allantoin were added to 100 parts by weight of purified water to prepare a water-based mixed solution. On the other hand, 0.1 parts by weight of fragrance, 0.3 parts by weight of PEG-60 hydrogenated castor oil, 5 parts by weight of 95% ethanol and 10 parts by weight of the polyol of Present Example 2 were mixed with each other to prepare a solubilized mixed solution. That is, the water-based mixed solution is composed of ultrapure water, EDTA-2Na, 1,2-hexanediol and allantoin, while the solubilized mixed solution is composed of fragrance, PEG-60 hydrogenated castor oil, ethanol and polyol.
The water-based mixed solution was stirred at room temperature for 3 minutes. On the other hand, the solubilized mixed solution was stirred was heating the same to 45 to 50° C. to make the same transparent. Then, the solubilized mixed solution was slowly added to the water-based mixed solution to prepare a mixture which in turn was stirred at room temperature for 2 minutes.
The amount of precipitation of allantoin was measured as follows. […] Then, the precipitated portion was dried for 12 hours, and then a weight thereof was measured. Thus, the amount of precipitation was derived as a difference value between the measured weight and the previously measured weight of the empty container.

[3] = Ceramide dispersion force in solubilized essence formulation and O/W emulsion formulation; type: physicochemical
Protocol: Further, an experiment for evaluating the dispersion force of ceramide was performed by applying the same to each of the solubilized essence formulation and the O/W emulsion formulation.

[4] = Dispersibility of vitamin C in P/O emulsion under heating condition; type: physicochemical; settings: vitamin C-containing formulations
Protocol: Vitamin C is a water-soluble substance that dissolves well in water. […] Therefore, in this experiment, vitamin C was applied to a polyol in oil (P/O) formulation as an anhydrous formulation, and an ivory-colored cream was prepared to evaluate dispersibility. It is more important to produce a stable cosmetic without discoloration, odor change, or phase separation rather than the problem of precipitation regarding vitamin C. Thus, factors for evaluating the dispersing power were set as soft spreadability, application uniformity, and emulsion stability. 1 part by weight of […] JC 500B, 1.5 parts by weight of ABIL EM 90, and 2 parts by weight of KF 6017 were added to 100 parts by weight of ELASTOMER BASE to produce an oil-based mixed solution 1. […] Further. 15 parts by weight of ascorbic acid ultra-fine powder was used to prepare a water-based mixed solution 2. Further, 45 parts by weight of KSG-16 was used to prepare an oil-based mixed solution 2. The oil-based mixed solution 1 was heated to 80 to 90° C. while stirring the same. […] The dispersion stability was evaluated as follows: unstable: phase separation between the oil phase and the aqueous phase, discoloration and/or odor change, normal: the oil phase being slightly separated, and stable: no oil phase separation.

[5] = Ceramide dispersion force in solubilized skin formulation; type: physicochemical
Protocol: (§1) Ceramide is an oil-soluble substance that is not soluble in water, precipitates easily during cosmetic production. It is difficult to stabilize ceramide due to gelling during the cosmetic production. In accordance with the present disclosure, the dispersion forces based on types of polyols were compared with each other using the characteristics of ceramide that precipitation thereof occurs well. The stability was evaluated at each of the room temperature, the refrigeration temperature, and the thermostat (45° C.).
0.02 parts by weight of EDTA-2Na and 2 parts by weight of 1,2-hexanediol were added to 100 parts by weight of purified water to prepare a water-based mixed solution 1. On the other hand, 0.1 parts by weight of fragrance, 0.3 parts by weight of PEG-60 hydrogenated castor oil, and 5 parts by weight of DPG (Dipropylene Glycol) were mixed with each other to produce a solubilized mixed solution. Further, a water-based mixed solution 2 was prepared by mixing 10 parts by weight of polyol of Present Example 6 and 1 part by weight of ceramide with each other.
The water-based mixed solution 1 was stirred at room temperature for 2 minutes. On the other hand, the solubilized mixed solution was heated to 45 to 50° C. while stirring the same to make the same transparent, and then was slowly added to the water-based mixed solution under a stirring operation. […]

[6] = Ceramide dispersion force evaluation (ceramide in polyol); type: physicochemical
Protocol: as §1

[7] = cited from earlier work

Q: For `C[C@H](O)[C@@H](C)O` [Present Example 1, (2R,3S)-2,3butanediol], which “dispersion force for allantoin” value [1] is on record?
A: excellent

Q: For `C[C@H](O)[C@@H](C)O` [Present Example 2, (2R,3S)-2,3butanediol], which “allantoin dispersion force in the solubilized formulation” value [2] is on record?
A: excellent

Q: With `C[C@H](O)[C@@H](C)O` [(2R,3S)-2,3-butanediol] as the molecule, how does the “dispersion force of ceramide” value [3] read?
A: the dispersion force was excellent

Q: And the gelling phenomenon [3]?
A: no gelling phenomenon was observed

Q: What about the “difference between the properties under the heating/non-heating conditions” value [4] of the same molecule?
A: no significant difference

Q: Which “ceramide dispersion force” value [5] does the source give for `C[C@H](O)[C@@H](C)O` [Present Example 6, (2R,3S)-2,3butanediol] here?
A: ceramide was stably dispersed

Q: With `C[C@H](O)[C@@H](C)O` [Present Example 5, (2R,3S)-2,3butanediol] as the molecule, how does the “ceramide dispersion force” value ([6]; 1 part ceramide in 100 parts polyol) read?
A: ceramide was stably dispersed

Q: What about the “state after 4 weeks in thermostat” value ([6]; thermostat (45° C.), 4 weeks) of the same molecule?
A: excellent dispersing power

Q: With `NC(=O)NC1NC(=O)NC1=O` (stereo not drawn) [allantoin] as the molecule, how does the solubility of allantoin [7] read?
A: 0.5 g/100 mL
